According to patent publication US9115149B2, “Heterocyclic compounds as inhibitors of fatty acid biosysnthesis for bacterial infections” (Vitas Pharma Research Private Limited, priority 2011, dated 2015):
≈ marks a conversion by molar mass, not a printed value. Where two headings read alike, the source gives them in different places.

How the values were obtained:
[1] = system: Methicillin resistant Staphylococcus aureus (ATCC 33591); assay: MIC in the presence of BSA; type: cell-based; conditions: ATCC33591, 10% BSA
Procedure: (§1) Shown below are the biological activities of representative compounds of the invention. The compounds were tested by the microbroth dilution method (National committee for Clinical Laboratory Standards, M07-A8, Volume 29, 2009) to determine the Minimum Inhibitory Concentration (MIC) against Methicillin sensitive and resistant Staphylococcus aureus. The MICs in the presence of 10% BSA was also tested. Further, select compounds were tested for metabolic stability using mouse liver microsomes based on published protocols (Journal of Biological Sciences, 2008, 8, 1110-1114).

[2] = system: Staphylococcus aureus (ATCC29213); assay: MIC by microbroth dilution, methicillin sensitive S. aureus; type: cell-based; conditions: read-out: Minimum inhibitory concentration (MIC) Staphylococcus aureus (ATCC29213)
Procedure: as §1

[3] = system: Methicillin resistant Staphylococcus aureus (ATCC 33591); assay: MIC by microbroth dilution, methicillin resistant S. aureus; type: cell-based; conditions: ATCC33591, read-out: Minimum inhibitory concentration (MIC) Methicillin resistant Staphylococcus aureus (ATCC 33591)
Procedure: as §1

[4] = system: Bacillus subtilis (ΔFabI, ΔFabL; Pxylose SaFabI); assay: Target specificity: MIC in B. subtilis expressing S. aureus FabI under xylose inducible promoter; type: cell-based
Procedure: To test for target specificity, the MIC was determined in a Bacillus subtilis strain in which the two FabI homologues (FabI and FabL) were deleted and replaced with S. aureus FabI (Sa FabI) under a Xylose inducible promoter. By varying the amount of xylose in the growth medium, the expression of FabI was proportionately modified. Compounds specifically targeting Sa FabI show an increased MIC when higher amounts of FabI are present in the cell (high Xylose concentrations). In contrast, when FabI levels are low, the cell becomes hypersusceptible, reducing the MIC (low Xylose concentrations). […] Shown below are data for target specificity.

[5] = Pharmacokinetic profile in male Swiss albino mice; conditions: mouse, in vivo; for AUC / clearance / half-life / Cmax: intravenous single dose 5 mg/kg body weight; for bioavailability: po
Procedure: The following compounds were dosed to male Swiss albino mice to determine the pharmacokinetic profiles.

[6] = Metabolic stability in mouse liver microsomes; type: in vitro ADME
Procedure: as §1

[7] = system: S. pneumoniae ATCC 6301; assay: MIC against non-S. aureus strains; type: cell-based
Procedure: (§2) A subset of compounds was tested against non-S. aureus strains to determine the Minimum Inhibitory Concentration (MIC) against non-S. aureus species (National committee for Clinical Laboratory Standards, M07-A8, Volume 29, 2009).

[8] = system: S. haemolyticus ATCC 29970; assay: MIC against non-S. aureus strains; type: cell-based
Procedure: as §2

[9] = system: M. catarrhalis ATCC 8176; assay: MIC against non-S. aureus strains; type: cell-based
Procedure: as §2

[10] = system: H. influenzae ATCC 49247; assay: MIC against non-S. aureus strains; type: cell-based
Procedure: as §2

[11] = system: E. coli ATCC 25922; assay: MIC against non-S. aureus strains; type: cell-based
Procedure: as §2

[12] = system: S. epidermidis ATCC 12228; assay: MIC against non-S. aureus strains; type: cell-based
Procedure: as §2

[13] = system: E. feacalis ATCC 29212; assay: MIC against non-S. aureus strains; type: cell-based
Procedure: as §2

[14] = Mutation prevention concentration; type: cell-based
Procedure: The mutation prevention concentration or the concentration above which mutants are unlikely to be selected, was determined based on published protocols (Antimicrobial Agents and Chemotherapy, 45, 433-438, 2001).

[15] = system: MRSA ATCC33591; assay: Systemic infection model in mice; type: in vivo
Procedure: In order to evaluate the in vivo efficacy of the scaffold, we tested representative compounds for activity in the systemic infection model in mice (Antimicrobial Agents and Chemotherapy, 47, 2507-2512, 2003). In this model, a 15× medial lethal dose of the bacteria (MRSA ATCC33591) was administered to mice intraperitoneally. 1 hour later, VT-02-00068 was administered i.v. at doses of 30, 10 and 3 mg/kg body weight. The compound was administered again 4 hours later. A total of 5 doses were administered, i.e. 2 doses on day 0, 2 on day 1 and 1 on day 2. […] The survival was 100, 100 and 65% at 30, 10 and 3 mg/kg body weight respectively.
VT-02-00044 was tested using the same protocol. The compound was dosed at 50 mg/kg body weight for 3 days, 2 doses per day.

[16] = read-out: MIC in the presence of 0.005% Xylose (low Xylose concentration)
[17] = read-out: MIC in the presence of 0.5% Xylose (high Xylose concentration)

CCC1(CC)C(=O)Nc2ncc(/C=C/C(=O)N(C)Cc3sc4ccccc4c3C)cc21 [VT-02-00078, (E)-3-(3,3-diethyl-2-oxo-2,3-dihydro-1H-pyrrolo[2,3-b]pyridin-5-yl)-N-methyl-N-((3-methylbenzo[b]thiophen-2-yl)methyl)acrylamide]
MIC [1]: 250 ng/mL | MIC [2]: 15 ng/mL (≈ 0.0346 µM) | MIC [3]: 15 ng/mL (≈ 0.0346 µM) | MIC [4, 16]: < 2.98e-05 ng/mL | MIC [4, 17]: 1.91e-05 ng/mL | AUC [5]: 1410 ng·h/mL | clearance [5]: 58.5 mL/min/kg | half-life [5]: 0.32 h | bioavailability [5]: 67.1% | Metabolic stability (mouse liver microsomes) % of compound remaining after 30 minutes [6]: 15%

CCC1(CC)C(=O)Nc2ncc(/C=C/C(=O)N(C)Cc3oc4ccccc4c3C)cc21 [VT-02-00071, (E)-3-(3,3-diethyl-2-oxo-2,3-dihydro-1H-pyrrolo[2,3-b]pyridin-5-yl)-N-methyl-N-((3-methylbenzofuran-2-yl)methyl)acrylamide]
MIC [1]: 250 ng/mL | MIC [2]: 15 ng/mL (≈ 0.0359 µM) | MIC [3]: 15 ng/mL (≈ 0.0359 µM) | MIC [4, 16]: 0.000477 ng/mL | MIC [4, 17]: 0.06 ng/mL | AUC [5]: 1220 ng·h/mL | Cmax [5]: 1550 ng/mL | clearance [5]: 67.8 mL/min/kg | half-life [5]: 0.52 h | bioavailability [5]: 26% | Metabolic stability (mouse liver microsomes) % of compound remaining after 30 minutes [6]: 12%

Cc1c(CN(C)C(=O)/C=C/c2cnc3c(c2)C2(CCC2)C(=O)N3)c2ccccc2n1C [VT-02-00091, (E)-N-((1,2-dimethyl-1H-indol-3-yl)methyl)-N-methyl-3-(T-oxo-1′,2′-dihydrospiro[cyclobutane-1,3′-pyrrolo[2,3-b]pyridine]-5′-yl)acrylamide]
MIC [1]: 120 ng/mL | MIC [2]: 15 ng/mL (≈ 0.0362 µM) | MIC [3]: 15 ng/mL (≈ 0.0362 µM) | MIC [4, 17]: 0.061 ng/mL | MIC S. pneumoniae ATCC 6301 [7]: > 32000 ng/mL | MIC S. haemolyticus ATCC 29970 [8]: 15 ng/mL (≈ 0.0362 µM) | MIC M. catarrhalis ATCC 8176 [9]: > 16000 ng/mL | MIC H. influenzae ATCC 49247 [10]: > 16000 ng/mL | MIC E. coli ATCC 25922 [11]: > 16000 ng/mL | MIC S. epidermidis ATCC 12228 [12]: 15 ng/mL (≈ 0.0362 µM) | MIC E. feacalis ATCC 29212 [13]: > 16000 ng/mL | Mutation prevention concentration [14]: 0.06 µg/mL | Metabolic stability (mouse liver microsomes) % of compound remaining after 30 minutes [6]: 21%

Cc1c(CN(C)C(=O)/C=C/c2cnc3c(c2)C(C)(C)C(=O)N3)sc2ccccc12 [VT-02-00069, (E)-3-(3,3-dimethyl-2-oxo-2,3-dihydro-1H-pyrrolo[2,3-b]pyridin-5-yl)-N-methyl-N-((3-methylbenzo[b]thiophen-2-yl)methyl)acrylamide]
MIC [1]: 1000 ng/mL | MIC [2]: 15 ng/mL (≈ 0.037 µM) | MIC [3]: 15 ng/mL (≈ 0.037 µM) | MIC [4, 16]: 0.2 ng/mL | MIC [4, 17]: 15 ng/mL | Metabolic stability (mouse liver microsomes) % of compound remaining after 30 minutes [6]: 10%

CN(Cc1cn(C)c2ccccc12)C(=O)/C=C/c1ccc2c(c1)C1(CCC1)C(=O)N2 [VT-02-00085, (E)-N-methyl-N-((1-methyl-1H-indol-3-yl)methyl)-3-(2′-oxospiro[cyclobutane-1,3′-indoline]-5′-yl)acrylamide]
MIC [1]: 1000 ng/mL | MIC [2]: 60 ng/mL (≈ 0.15 µM) | MIC [3]: 60 ng/mL (≈ 0.15 µM) | MIC [4, 16]: 0.97 ng/mL | MIC [4, 17]: 60 ng/mL | Metabolic stability (mouse liver microsomes) % of compound remaining after 30 minutes [6]: 33%

CN(Cc1cc2ccccc2n1C)C(=O)/C=C/c1cnc2c(c1)C1(CCC1)C(=O)N2 [VT-02-00070, (E)-N-methyl-N-((1-methyl-1H-indol-2-yl)methyl)-3-(2′-oxo-1′,2′-dihydrospiro[cyclobutane-1,3′-pyrrolo[2,3-b]pyridine]-5′-yl)acrylamide]
MIC [1]: 2000 ng/mL | MIC [2]: 500 ng/mL (≈ 1.25 µM) | MIC [3]: 500 ng/mL (≈ 1.25 µM) | MIC [4, 16]: < 0.000119 ng/mL | MIC [4, 17]: 7.8 ng/mL | Metabolic stability (mouse liver microsomes) % of compound remaining after 30 minutes [6]: 45%

CCC1(CC)C(=O)Nc2ncc(/C=C/C(=O)N(C)Cc3cc4ccccc4n3C)cc21 [VT-02-00064, (E)-3-(3,3-diethyl-2-oxo-2,3-dihydro-1H-pyrrolo[2,3-b]pyridin-5-yl)-N-methyl-N-((1-methyl-1H-indol-2-yl)methyl)acrylamide]
MIC [1]: 1000 ng/mL | MIC [2]: 120 ng/mL (≈ 0.288 µM) | MIC [3]: 120 ng/mL (≈ 0.288 µM) | MIC [4, 16]: 30 ng/mL | MIC [4, 17]: 250 ng/mL | AUC [5]: 1400 ng·h/mL | Cmax [5]: 1810 ng/mL | clearance [5]: 59.4 mL/min/kg | half-life [5]: 0.44 h | bioavailability [5]: 51.5% | Metabolic stability (mouse liver microsomes) % of compound remaining after 30 minutes [6]: 18%

CCn1c(=O)[nH]c2ncc(/C=C/C(=O)N(C)Cc3cc4ccccc4n3C)cc21 [VT-02-00044, (E)-3-(1-ethyl-2-oxo-2,3-dihydro-1H-imidazo[4,5-b]pyridin-6-yl)-N-methyl-N-((1-methyl-1H-indol-2-yl)methyl)acrylamide]
MIC [1]: 2000 ng/mL | MIC [2]: 500 ng/mL (≈ 1.28 µM) | MIC [3]: 1000 ng/mL (≈ 2.57 µM) | MIC [4, 16]: < 1.9 ng/mL | MIC [4, 17]: 15 ng/mL | AUC [5]: 1040 ng·h/mL | Cmax [5]: 949 ng/mL | clearance [5]: 75.9 mL/min/kg | half-life [5]: 1.65 h | bioavailability [5]: 29% | Survival ([15]; 50 mg/kg body weight for 3 days, 2 doses per day): 100% | Metabolic stability (mouse liver microsomes) % of compound remaining after 30 minutes [6]: 50%

Cc1c(CN(C)C(=O)/C=C/c2cnc3c(c2)C2(CCC2)C(=O)N3)sc2ccccc12 [VT-02-00073, (E)-N-methyl-N-((3-methylbenzo[b]thiophen-2-yl)methyl)-3-(2′-oxo-1′,2′-dihydrospiro[cyclobutane-1,3′-pyrrolo[2,3-b]pyridine]-5′-yl)acrylamide]
MIC [1]: 250 ng/mL | MIC [2]: 15 ng/mL (≈ 0.0359 µM) | MIC [3]: 15 ng/mL (≈ 0.0359 µM) | MIC [4, 16]: 0.00381 ng/mL | MIC [4, 17]: 0.97 ng/mL | AUC [5]: 7320 ng·h/mL | Cmax [5]: 4380 ng/mL | clearance [5]: 11.1 mL/min/kg | half-life [5]: 1.89 h | bioavailability [5]: 38.5% | Metabolic stability (mouse liver microsomes) % of compound remaining after 30 minutes [6]: 11%

Cc1c(CN(C)C(=O)/C=C/c2cnc3c(c2)C(C)(C)C(=O)N3)oc2ccccc12 [VT-02-00068, (E)-3-(3,3-dimethyl-2-oxo-2,3-dihydro-1H-pyrrolo[2,3-b]pyridin-5-yl)-N-methyl-N-((3-methylbenzofuran-2-yl)methyl)acrylamide]
MIC [1]: 500 ng/mL | MIC [2]: 15 ng/mL (≈ 0.0385 µM) | MIC [3]: 15 ng/mL (≈ 0.0385 µM) | MIC [4, 16]: < 0.06 ng/mL | MIC [4, 17]: 15 ng/mL | MIC S. pneumoniae ATCC 6301 [7]: > 32000 ng/mL | MIC S. haemolyticus ATCC 29970 [8]: 250 ng/mL (≈ 0.642 µM) | MIC M. catarrhalis ATCC 8176 [9]: > 16000 ng/mL | MIC H. influenzae ATCC 49247 [10]: > 16000 ng/mL | MIC E. coli ATCC 25922 [11]: > 16000 ng/mL | MIC S. epidermidis ATCC 12228 [12]: 30 ng/mL (≈ 0.077 µM) | MIC E. feacalis ATCC 29212 [13]: > 16000 ng/mL | AUC [5]: 10300 ng·h/mL | Cmax [5]: 7850 ng/mL | clearance [5]: 7.83 mL/min/kg | half-life [5]: 1.82 h | bioavailability [5]: 56.1% | Mutation prevention concentration [14]: 0.5 ug/ml μg/ml | Survival ([15]; 3 mg/kg body weight i.v., 5 doses, mortality observed for 7 days): 65% | Survival ([15]; 10 mg/kg body weight i.v., 5 doses, mortality observed for 7 days): 100% | Survival ([15]; 30 mg/kg body weight i.v., 5 doses, mortality observed for 7 days): 100% | Metabolic stability (mouse liver microsomes) % of compound remaining after 30 minutes [6]: 21%
